Source: patent publication US8192962B2, “Processes for detecting toxic substances” (Daikin Industries, Ltd., priority 2001, dated 2012)

Test system: Energy system protein genes
Assay: DNA chip mRNA expression in yeast, energy system protein genes (Table 4)
Format: cell-based, Saccharomyces cerevisiae S288C
Method in brief: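 Value is the scanned fluorescence intensity ratio of exposed versus chemical-free cells. Log-phase S288C yeast in YPD at 25° C. received one toxic substance for two hours, dosed to slow growth without killing; Cy3/Cy5-labeled cDNA from oligo-dT-purified mRNA was hybridized to a whole-genome chip at 65° C.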

CN(C)C(=S)SSC(=S)N(C)C [(10), Tetramethylthiuram disulfide]
The level of expressed mRNA in the presence of chemical substance/The level of expressed mRNA in the absence of chemical substance (yeast gene YAL060W): 2.5
The level of expressed mRNA in the presence of chemical substance/The level of expressed mRNA in the absence of chemical substance (yeast gene YBL058W, cells incubated two hours with the chemical substance): 2.1
The level of expressed mRNA in the presence of chemical substance/The level of expressed mRNA in the absence of chemical substance (yeast gene YBL099W, cells incubated two hours with the chemical substance): 0.7
The level of expressed mRNA in the presence of chemical substance/The level of expressed mRNA in the absence of chemical substance (yeast gene YBR001C, cells incubated two hours with the chemical substance): 2.1
The level of expressed mRNA in the presence of chemical substance/The level of expressed mRNA in the absence of chemical substance (yeast gene YBR185C, cells incubated two hours with the chemical substance): 1.6
The level of expressed mRNA in the presence of chemical substance/The level of expressed mRNA in the absence of chemical substance (yeast gene YBR221C, cells incubated two hours with the chemical substance): 1.3
The level of expressed mRNA in the presence of chemical substance/The level of expressed mRNA in the absence of chemical substance (yeast gene YCL040W): 3.0
The level of expressed mRNA in the presence of chemical substance/The level of expressed mRNA in the absence of chemical substance (yeast gene YCR012W): 1.5
The level of expressed mRNA in the presence of chemical substance/The level of expressed mRNA in the absence of chemical substance (yeast gene YCR046C, cells incubated two hours with the chemical substance): 1.4
The level of expressed mRNA in the presence of chemical substance/The level of expressed mRNA in the absence of chemical substance (yeast gene YCR105W, cells incubated two hours with the chemical substance): 3.9
The level of expressed mRNA in the presence of chemical substance/The level of expressed mRNA in the absence of chemical substance (yeast gene YDL021W): 7.4
The level of expressed mRNA in the presence of chemical substance/The level of expressed mRNA in the absence of chemical substance (yeast gene YDL067C, cells incubated two hours with the chemical substance): 0.9
The level of expressed mRNA in the presence of chemical substance/The level of expressed mRNA in the absence of chemical substance (yeast gene YDL078C, cells incubated two hours with the chemical substance): 1.0
The level of expressed mRNA in the presence of chemical substance/The level of expressed mRNA in the absence of chemical substance (yeast gene YDL107W, cells incubated two hours with the chemical substance): 1.8
The level of expressed mRNA in the presence of chemical substance/The level of expressed mRNA in the absence of chemical substance (yeast gene YDL174C): 1.7
The level of expressed mRNA in the presence of chemical substance/The level of expressed mRNA in the absence of chemical substance (yeast gene YDL181W, cells incubated two hours with the chemical substance): 0.8
The level of expressed mRNA in the presence of chemical substance/The level of expressed mRNA in the absence of chemical substance (yeast gene YDR001C): 3.0
The level of expressed mRNA in the presence of chemical substance/The level of expressed mRNA in the absence of chemical substance (yeast gene YDR050C, cells incubated two hours with the chemical substance): 1.3
The level of expressed mRNA in the presence of chemical substance/The level of expressed mRNA in the absence of chemical substance (yeast gene YDR079W, cells incubated two hours with the chemical substance): 0.8
The level of expressed mRNA in the presence of chemical substance/The level of expressed mRNA in the absence of chemical substance (yeast gene YDR178W, cells incubated two hours with the chemical substance): 0.8
The level of expressed mRNA in the presence of chemical substance/The level of expressed mRNA in the absence of chemical substance (yeast gene YDR231C): 1.4
The level of expressed mRNA in the presence of chemical substance/The level of expressed mRNA in the absence of chemical substance (yeast gene YDR298C, cells incubated two hours with the chemical substance): 1.6
The level of expressed mRNA in the presence of chemical substance/The level of expressed mRNA in the absence of chemical substance (yeast gene YDR377W, cells incubated two hours with the chemical substance): 0.9
The level of expressed mRNA in the presence of chemical substance/The level of expressed mRNA in the absence of chemical substance (yeast gene YDR529C, cells incubated two hours with the chemical substance): 0.6
The level of expressed mRNA in the presence of chemical substance/The level of expressed mRNA in the absence of chemical substance (yeast gene YEL024W, cells incubated two hours with the chemical substance): 0.6
The level of expressed mRNA in the presence of chemical substance/The level of expressed mRNA in the absence of chemical substance (yeast gene YEL039C, cells incubated two hours with the chemical substance): 1.2
The level of expressed mRNA in the presence of chemical substance/The level of expressed mRNA in the absence of chemical substance (yeast gene YER178W): 1.3
The level of expressed mRNA in the presence of chemical substance/The level of expressed mRNA in the absence of chemical substance (yeast gene YFL057C): 46.1
The level of expressed mRNA in the presence of chemical substance/The level of expressed mRNA in the absence of chemical substance (yeast gene YFR053C): 1.1
The level of expressed mRNA in the presence of chemical substance/The level of expressed mRNA in the absence of chemical substance (yeast gene YGL018C, cells incubated two hours with the chemical substance): 1.4
The level of expressed mRNA in the presence of chemical substance/The level of expressed mRNA in the absence of chemical substance (yeast gene YGL062W): 2.5
The level of expressed mRNA in the presence of chemical substance/The level of expressed mRNA in the absence of chemical substance (yeast gene YGL187C, cells incubated two hours with the chemical substance): 0.6
The level of expressed mRNA in the presence of chemical substance/The level of expressed mRNA in the absence of chemical substance (yeast gene YGL191W, cells incubated two hours with the chemical substance): 1.3
The level of expressed mRNA in the presence of chemical substance/The level of expressed mRNA in the absence of chemical substance (yeast gene YGL205W, cells incubated two hours with the chemical substance): 0.6
The level of expressed mRNA in the presence of chemical substance/The level of expressed mRNA in the absence of chemical substance (yeast gene YGL256W, cells incubated two hours with the chemical substance): 1.2
The level of expressed mRNA in the presence of chemical substance/The level of expressed mRNA in the absence of chemical substance (yeast gene YGR008C): 2.4
The level of expressed mRNA in the presence of chemical substance/The level of expressed mRNA in the absence of chemical substance (yeast gene YGR043C): 8.4
The level of expressed mRNA in the presence of chemical substance/The level of expressed mRNA in the absence of chemical substance (yeast gene YGR062C, cells incubated two hours with the chemical substance, 25° C., YPD medium): 1.4
The level of expressed mRNA in the presence of chemical substance/The level of expressed mRNA in the absence of chemical substance (yeast gene YGR087C, cells incubated two hours with the chemical substance): 0.9
The level of expressed mRNA in the presence of chemical substance/The level of expressed mRNA in the absence of chemical substance (yeast gene YGR174C, cells incubated two hours with the chemical substance): 0.7
The level of expressed mRNA in the presence of chemical substance/The level of expressed mRNA in the absence of chemical substance (yeast gene YGR192C): 1.3
The level of expressed mRNA in the presence of chemical substance/The level of expressed mRNA in the absence of chemical substance (yeast gene YGR207C): 2.6
The level of expressed mRNA in the presence of chemical substance/The level of expressed mRNA in the absence of chemical substance (yeast gene YGR244C): 1.1
The level of expressed mRNA in the presence of chemical substance/The level of expressed mRNA in the absence of chemical substance (yeast gene YGR254W): 1.2
The level of expressed mRNA in the presence of chemical substance/The level of expressed mRNA in the absence of chemical substance (yeast gene YGR256W): 2.5
The level of expressed mRNA in the presence of chemical substance/The level of expressed mRNA in the absence of chemical substance (yeast gene YHL008C): 1.7
The level of expressed mRNA in the presence of chemical substance/The level of expressed mRNA in the absence of chemical substance (yeast gene YHR179W): 5.8
The level of expressed mRNA in the presence of chemical substance/The level of expressed mRNA in the absence of chemical substance (yeast gene YIL160C): 3.8
The level of expressed mRNA in the presence of chemical substance/The level of expressed mRNA in the absence of chemical substance (yeast gene YIL172C): 7.1
The level of expressed mRNA in the presence of chemical substance/The level of expressed mRNA in the absence of chemical substance (yeast gene YIR031C, cells incubated two hours with the chemical substance): 1.0
The level of expressed mRNA in the presence of chemical substance/The level of expressed mRNA in the absence of chemical substance (yeast gene YJL052W): 2.0
The level of expressed mRNA in the presence of chemical substance/The level of expressed mRNA in the absence of chemical substance (yeast gene YJL121C, cells incubated two hours with the chemical substance): 0.4
The level of expressed mRNA in the presence of chemical substance/The level of expressed mRNA in the absence of chemical substance (yeast gene YJL166W, cells incubated two hours with the chemical substance): 1.2
